Data set [1] deals with T1, recombinant human COX-2 (Homo sapiens, UniProt P35354).
T1 construct: purchased Cayman Chemical 700100
T1 sequence (P35354 18-604): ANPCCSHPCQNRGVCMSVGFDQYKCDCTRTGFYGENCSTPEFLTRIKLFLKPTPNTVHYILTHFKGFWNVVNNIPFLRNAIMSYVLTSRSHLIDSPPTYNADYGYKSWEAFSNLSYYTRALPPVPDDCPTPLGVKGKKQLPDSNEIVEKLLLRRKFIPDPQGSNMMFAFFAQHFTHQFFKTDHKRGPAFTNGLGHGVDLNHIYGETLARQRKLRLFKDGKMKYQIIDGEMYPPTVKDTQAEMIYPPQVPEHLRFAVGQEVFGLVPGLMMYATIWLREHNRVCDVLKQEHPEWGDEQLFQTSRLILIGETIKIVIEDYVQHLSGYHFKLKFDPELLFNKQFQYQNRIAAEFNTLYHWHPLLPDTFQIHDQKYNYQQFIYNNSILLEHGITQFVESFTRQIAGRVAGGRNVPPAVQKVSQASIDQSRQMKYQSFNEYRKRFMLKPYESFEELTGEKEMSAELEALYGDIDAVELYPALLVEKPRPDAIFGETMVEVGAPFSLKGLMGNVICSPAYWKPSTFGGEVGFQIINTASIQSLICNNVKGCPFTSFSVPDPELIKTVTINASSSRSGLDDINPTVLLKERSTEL
Also on record: method as in PMID 26081289. The settings on record: COX-1 vs COX-2 selectivity index; COX inhibition previously reported ref 49; cited from earlier work.

Data set [2] in a line: Lipophilicity logD7.4 by HPLC method. The format is physicochemical. The settings on record: HPLC retention on ODP-50 4B column (Shodex Asahipak), phosphate buffer pH 7.4. How it is done: The lipophilicity of all synthesized compounds was determined as logD7.4, HPLC value by an HPLC method originally described by Donovan and Pescatore.
The logD7.4HPLC value was determined as previously reported by us utilizing an HPLC method originally described by Donovan and Pescatore.

Data set [3] addresses T2, purified ovine COX-1 (Ovis aries, UniProt P05979).
T2 construct: purchased Cayman Chemical 700100
T2 sequence (P05979 25-600): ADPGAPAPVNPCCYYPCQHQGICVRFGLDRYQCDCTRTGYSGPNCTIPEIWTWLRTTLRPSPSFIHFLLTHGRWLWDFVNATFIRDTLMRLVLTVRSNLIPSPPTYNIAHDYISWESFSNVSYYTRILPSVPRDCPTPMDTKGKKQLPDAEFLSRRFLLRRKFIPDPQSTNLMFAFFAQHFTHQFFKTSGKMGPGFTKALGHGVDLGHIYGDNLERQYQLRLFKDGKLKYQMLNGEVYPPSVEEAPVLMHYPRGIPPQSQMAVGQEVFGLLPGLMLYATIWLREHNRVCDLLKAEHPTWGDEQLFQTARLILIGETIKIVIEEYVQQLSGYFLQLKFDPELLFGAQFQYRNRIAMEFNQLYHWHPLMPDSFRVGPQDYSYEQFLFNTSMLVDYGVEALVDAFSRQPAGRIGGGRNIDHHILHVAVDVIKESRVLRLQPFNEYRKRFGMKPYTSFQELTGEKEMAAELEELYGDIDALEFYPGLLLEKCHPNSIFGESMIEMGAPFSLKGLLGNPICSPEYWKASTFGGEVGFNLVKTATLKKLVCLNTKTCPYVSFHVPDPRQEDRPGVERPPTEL
Further details: method as in PMID 26081289. Conditions: previously reported ref 49; cited from earlier work.

Data set [4] has as its target T1, recombinant human COX-2. Kind of data set: COX Fluorescent Inhibitor Screening Assay, COX-2. Conditions: for SI: COX-1 vs COX-2 selectivity index; for IC50: human COX-2, 0.1 nM to 100 µM in duplicate. It is filed as biochemical. How it is done: (§1) COX inhibition (Table 1) was evaluated in vitro using purified ovine COX-1 and recombinant human COX-2 enzyme in a commercially available “COX Fluorescent Inhibitor Screening Assay KIT” (item no. 700100, Cayman Chemical, Ann Arbor, MI, USA). Celecoxib served as a reference and inhibition data concerning 4a, 4e, 5a and 5e were previously reported by us and is herein discussed for comparison.
(§2) COX inhibition activity against ovine COX-1 and human COX-2 was determined using the fluorescence-based COX assay “COX Fluorescent Inhibitor Screening Assay Kit” (catalog number 700100; Cayman Chemical, Ann Arbor, MI, USA) according to the manufacturer’s instructions. Compounds 6a–d were screened at a concentration of 100 µM, all others were assayed in a concentration range of 0.1 nM to 100 μM in duplicate.

The target in data set [5] is T2, purified ovine COX-1. Kind of data set: COX Fluorescent Inhibitor Screening Assay, COX-1. The format is biochemical. The settings on record: 0.1 nM to 100 µM in duplicate. How it is done:
as §1, §2

Data set [6] in a line: Conversion in NO-assay buffer followed by UPLC. Conditions: after 70 h, 37 °C, presence of cysteine. The format is physicochemical. How it is done:
The time-dependent degradation behavior of compounds 4f, 5a–f, and 6a–d as well as celecoxib was followed by UPLC analysis over a time course of 8 days (Figure 4). For that, compounds were incubated at 37 °C in the presence or absence of cysteine in the assay buffer used for the Griess assay. Samples were withdrawn at distinct time points (1, 5, 23, 47, 70, and 191 h), diluted into a mixture of acetonitrile/water, and analyzed.
The time-dependent conversion of NO-COXIBs 5a–f and 6a–d as well as reference compounds 4f and celecoxib in the presence or absence of cysteine in assay buffer was investigated by following the degradation of intact compound and identification of selected degradation products by UPLC. For that, samples were incubated at 37 °C in the assay buffer in the presence or absence of cysteine and at the indicated time point; 5 µL assay buffer of each sample was withdrawn and diluted with 45 µL MeCN/water (50/50 v/v). The samples were thoroughly vortexed and then subjected to UPLC analysis. All samples of one time point were analyzed within a total analysis time of approximately 2.5 h. Conversion was monitored at 254 nm using the following UPLC system: column Aquity UPLC® HSS C18 column (Waters Corporation, Milford, MA, USA; 100 × 2.1 mm, 1.8 µm, 130 Å), UPLC H-Class (Waters Corporation, Milford, MA, USA): quaternary gradient pump QSM, autosampler FTN, column heater CHA, and diode array detector PDAeλ, γ detector Gabi Star (Raytest Isotopenmeßgeräte GmbH, Straubenhardt, Germany), flow rate 0.4 mL/min, eluent: (A): 0.1% acetic acid in MeCN/MeOH 1/1/(B): 0.1% acetic acid in H2O; gradient: t0min 45/55–t0.5min 45/55–t5.5min 95/5–t7.0min 95/5–t7.2min 45/55–t8.5min 45/55). For the identification of degradation products, samples taken after 24 h were additionally subjected to HPLC-HRMS analysis using HPLC system 6. In brief, the NO-COXIBs were converted to the respective hydroxymethyl-substituted compounds and in the presence of cysteine additionally to the cysteine adduct, which could be identified by the respective Δm/z shifts. A detailed comparison of calculated and found m/z-signals is given in Supplementary Material Table S1, and copies of HPLC-HRMS chromatograms and selected spectra are given in Supplementary Material Figures S56–S66.

A short description of data set [7]: Fluorometric NO release assay (Griess assay). The format is physicochemical. Conditions: 24 h, 37 °C, relative to initial molar amount of compound; for thiol-dependent NO release: 2.5 mM cysteine; for spontaneous NO release: absence of cysteine. As for the experimental part: The nitric oxide releasing properties of the nitroester-derivatives 5a–d, 5f, and 6a–d were evaluated using a fluorometric Griess assay in the presence and absence of cysteine to determine thiol-dependent and spontaneous release of nitric oxide (Figure 3).
Nitric oxide release of compounds within 24 h at 37 °C was measured using the fluorometric nitric oxide microplate assay kit ab65327 (Abcam, Cambridge, UK). For measurement of spontaneous release, 1.8 nmol of compounds were incubated in 75 µL Dulbecco’s PBS containing 0.05% v/v residual DMSO and 2.5 mM DTPA (pH = 7.1) for 24 h at 37 °C. Thiol-dependent release was measured accordingly in presence of 2.5 mM cysteine. Two series of nitrate standards were prepared (0.2−1 nmol) in 75 µL incubation buffer, in presence or absence of cysteine, respectively. According to the manufacturer’s instructions, all nitrate content in samples and standards was enzymatically converted into nitrite through incubation with nitrate reductase for 2 h at room temperature, and the resulting nitrite content (total nitric oxide) was determined through reaction with 2,3-diaminonaphthalene followed by measurement of fluorescence intensity at λex/em = 360/450 nm using a microplate reader. Nitrite content in samples was calculated from linear regression of standards and expressed as relative nitric oxide release (%) normalized to the initial molar amount of compound. NONOate served as positive control.
Figure 3 Spontaneous and thiol-dependent NO^• release from NO-COXIBs; measured using fluorometric Griess assay (n = 2); relative release indicates the percentage of soluble nitrogen species (nitrate + nitrite) detected in the incubation buffer after 24 h compared to the initial molar amount of compounds; NO^• release of NONOate (positive control) exceeded the maximum detection limit; data presented as mean ± range.
(In general: Griess reagent forms a coloured azo dye with nitrite.)

Structures can show the parent of a compound that is named as a salt. Where two headings read alike, the source gives them in different places.

Here are results for ten compounds from publication PMC9573605, “Exploring Nitric Oxide (NO)-Releasing Celecoxib Derivatives as Modulators of Radioresponse in Pheochromocytoma Cells” (Molecules, 2022).

The term melting point denotes the temperature of the solid-liquid transition. Take `COc1ccc(-c2c(Cl)c(CO[N+](=O)[O-])nn2-c2ccc(S(N)(=O)=O)cc2)cc1` (as salt: nitrate) [5b, [4-Chloro-5-(4-methoxyphenyl)-1-(4-sulfamoylphenyl)-1H-pyrazol-3-yl]methyl nitrate]: the melting point was in the range of 173 to 174 °C.
Same read-out and setting: the figure for `Cc1ccc(-c2c(Cl)c(CO[N+](=O)[O-])nn2-c2ccc(S(C)(=O)=O)cc2)cc1` (as salt: nitrate) [5c, {4-Chloro-1-[4-(methylsulfonyl)phenyl]-5-(p-tolyl)-1H-pyrazol-3-yl}methyl nitrate] is 113 to 115 °C; for `COc1ccc(-c2c(Cl)c(CO[N+](=O)[O-])nn2-c2ccc(S(C)(=O)=O)cc2)cc1` (as salt: nitrate) [5d, {4-Chloro-5-(4-methoxyphenyl)-1-[4-(methylsulfonyl)phenyl]-1H-pyrazol-3-yl}methyl nitrate] it is 141 to 143 °C; for `CCC(=O)NS(=O)(=O)c1ccc(-n2nc(CO[N+](=O)[O-])cc2-c2ccc(C)cc2)cc1` (as salt: nitrate) [6c, {1-[4-(N-Propionylsulfamoyl)phenyl]-5-(p-tolyl)-1H-pyrazol-3-yl}methyl nitrate] it is 72 to 74 °C.
In general, chromatographic logD refers to lipophilicity estimated from chromatographic retention. Low values mean lower lipophilicity, high ones higher lipophilicity. Usually IC50 stands for the concentration at which inhibition is half-maximal. As to `Cc1ccc(-c2c(Cl)c(CCl)nn2-c2ccc(S(N)(=O)=O)cc2)cc1` [4a, 4-[4-Chloro-3-(chloromethyl)-5-(4-toly)-1H-pyrazol-1-yl]benzenesulfonamide], the SI at recombinant human COX-2 [1] is greater than 454. For the same compound, the chromatographic logD in data set [2] worked out at 3.61. Besides, the IC50 at purified ovine COX-1 [3] was greater than 100 µM.
Compound `COc1ccc(-c2c(Cl)c(CCl)nn2-c2ccc(S(N)(=O)=O)cc2)cc1` [4b, 4-[4-Chloro-3-(chloromethyl)-5-(4-methoxyphenyl)-1H-pyrazol-1-yl]benzenesulfonamide] yielded a melting point of 238 to 240 °C. Further, on recombinant human COX-2 [4], the SI was 2.3 and the IC50 was 127 nM. Besides, on purified ovine COX-1 [5], half-maximal inhibition (IC50) required 297 nM. For the same compound, in data set [2], the chromatographic logD worked out at 3.53.
Consider `Cc1ccc(-c2c(Cl)c(CCl)nn2-c2ccc(S(C)(=O)=O)cc2)cc1` [4c, 4-Chloro-3-(chloromethyl)-1-[4-(methylsulfonyl)phenyl]-5-(p-tolyl)-1H-pyrazole], for which, on recombinant human COX-2 [4], the SI is listed as greater than 138 and the half-maximal inhibitory concentration (IC50) was determined as 720 nM. Besides, at purified ovine COX-1 [5], the IC50 was greater than 100000 nM. In data set [2], this compound yielded a chromatographic logD of 3.9.
Take `COc1ccc(-c2c(Cl)c(CCl)nn2-c2ccc(S(C)(=O)=O)cc2)cc1` [4d, 4-Chloro-3-(chloromethyl)-5-(4-methoxyphenyl)-1-[4-(methylsulfonyl)phenyl]-1H-pyrazole]: the melting point lay within 234 to 236 °C. At recombinant human COX-2 [4], the SI is reported as greater than 208 and the concentration for half-maximal inhibition (IC50) was 480 nM. This compound registered an IC50 against purified ovine COX-1 [5] greater than 100000 nM. This compound displayed a chromatographic logD in data set [2] of 3.84.
As to `COc1ccc(-c2cc(CCl)nn2-c2ccc(S(N)(=O)=O)cc2)cc1` [4f, 4-[3-(Chloromethyl)-5-(4-methoxyphenyl)-1H-pyrazol-1-yl]benzenesulfonamide], the melting point lay in the range of 169 to 172 °C. Besides, at recombinant human COX-2 [4], the SI is greater than 270 and the IC50 amounted to 370 nM. For the same compound, the intact compound entry in data set [6] is recorded as “quantitatively consumed”. The compound further yielded an IC50 against purified ovine COX-1 [5] greater than 100000 nM. Moreover, in data set [7], the “thiol-dependent NO release” value is reported as “not detectable” and the “spontaneous NO release” value is “not detectable”. Besides, the chromatographic logD in data set [2] turned out to be 3.06.
Turning to `COc1ccc(-c2c(Cl)c(CO[N+](=O)[O-])nn2-c2ccc(S(N)(=O)=O)cc2)cc1` [5b, [4-Chloro-5-(4-methoxyphenyl)-1-(4-sulfamoylphenyl)-1H-pyrazol-3-yl]methyl nitrate], on recombinant human COX-2 [4], the SI was 5.9 and the IC50 was 434 nM. Further, on purified ovine COX-1 [5], the IC50 is 2570 nM and the “IC50 (COX-1)” value is reported as “considerable COX-1 inhibition potency”. For the same compound, in data set [7], the “thiol-dependent NO release” value was 20% and the “spontaneous NO release” value is “no detectable”. In addition, the chromatographic logD in data set [2] stood at 3.67.
